Laboratory results taken from PubChem BioAssay (NCI).
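Dose response: 5 concentrations. Exposure: 48 h. Format: 96-well plates. Endpoint: linear interpolation; highest concentration if not reached. TGI is the concentration that stops growth completely.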

What was measured:
Assay in all cases: NCI-60 cell line screen, 48 h
SW-620 colon = system: SW-620 colon
OVCAR-5 ovarian = system: OVCAR-5 ovarian
RPMI-8226 leukemia = system: RPMI-8226 leukemia
U251 CNS = system: U251 CNS
LXFL 529 NSCLC = system: LXFL 529 NSCLC
A498 renal = system: A498 renal
SK-OV-3 ovarian = system: SK-OV-3 ovarian
SR leukemia = system: SR leukemia
SN12C renal = system: SN12C renal
KM12 colon = system: KM12 colon
UACC-257 melanoma = system: UACC-257 melanoma
HOP-62 NSCLC = system: HOP-62 NSCLC
SK-MEL-5 melanoma = system: SK-MEL-5 melanoma
SK-MEL-2 melanoma = system: SK-MEL-2 melanoma
SF-539 CNS = system: SF-539 CNS
HCT-15 colon = system: HCT-15 colon
EKVX NSCLC = system: EKVX NSCLC
SNB-19 CNS = system: SNB-19 CNS
CCRF-CEM leukemia = system: CCRF-CEM leukemia
K-562 leukemia = system: K-562 leukemia
CAKI-1 renal = system: CAKI-1 renal
KM20L2 colon = system: KM20L2 colon
OVCAR-3 ovarian = system: OVCAR-3 ovarian
HL-60(TB) leukemia = system: HL-60(TB) leukemia
OVCAR-4 ovarian = system: OVCAR-4 ovarian
RXF-631 renal = system: RXF-631 renal
MOLT-4 leukemia = system: MOLT-4 leukemia
IGROV1 ovarian = system: IGROV1 ovarian
NCI-H23 lung = system: NCI-H23 lung
UO-31 renal = system: UO-31 renal
NCI-H522 lung = system: NCI-H522 lung
M14 melanoma = system: M14 melanoma
HOP-92 NSCLC = system: HOP-92 NSCLC
A549 NSCLC = system: A549 NSCLC
DMS 273 small cell lung = system: DMS 273 small cell lung
COLO 205 colon = system: COLO 205 colon
ACHN renal = system: ACHN renal
SF-268 CNS = system: SF-268 CNS
LOX IMVI melanoma = system: LOX IMVI melanoma
NCI-H226 lung = system: NCI-H226 lung
UACC-62 melanoma = system: UACC-62 melanoma
MALME-3M melanoma = system: MALME-3M melanoma
RXF 393 renal = system: RXF 393 renal
NCI-H460 lung = system: NCI-H460 lung
786-0 renal = system: 786-0 renal
SF-295 CNS = system: SF-295 CNS
SNB-75 CNS = system: SNB-75 CNS
M19-MEL melanoma = system: M19-MEL melanoma
HT29 colon = system: HT29 colon
TK-10 renal = system: TK-10 renal
HCT-116 colon = system: HCT-116 colon
OVCAR-8 ovarian = system: OVCAR-8 ovarian
SNB-78 CNS = system: SNB-78 CNS
HOP-18 NSCLC = system: HOP-18 NSCLC
SK-MEL-28 melanoma = system: SK-MEL-28 melanoma
HCC-2998 colon = system: HCC-2998 colon
DLD-1 colon = system: DLD-1 colon
DMS 114 small cell lung = system: DMS 114 small cell lung
XF 498 CNS = system: XF 498 CNS

CCCCCCc1cc(C(=O)Nc2ccc(Cl)cc2)nc(=S)[nH]1
TGI (SW-620 colon): > 100 µM
TGI (OVCAR-5 ovarian): 85.8 µM
TGI (RPMI-8226 leukemia): > 100 µM
TGI (U251 CNS): > 100 µM
TGI (LXFL 529 NSCLC): > 100 µM
TGI (A498 renal): > 1 µM
TGI (SK-OV-3 ovarian): > 100 µM
TGI (SR leukemia): > 100 µM
TGI (SN12C renal): > 100 µM
TGI (KM12 colon): > 100 µM
TGI (UACC-257 melanoma): > 100 µM
TGI (HOP-62 NSCLC): > 100 µM
TGI (SK-MEL-5 melanoma): > 100 µM
TGI (SK-MEL-2 melanoma): > 100 µM
TGI (SF-539 CNS): > 100 µM
TGI (HCT-15 colon): > 1 µM
TGI (EKVX NSCLC): > 100 µM
TGI (SNB-19 CNS): > 1 µM
TGI (CCRF-CEM leukemia): > 100 µM
TGI (K-562 leukemia): > 100 µM
TGI (CAKI-1 renal): > 100 µM
TGI (KM20L2 colon): > 1 µM
TGI (OVCAR-3 ovarian): > 1 µM
TGI (HL-60(TB) leukemia): > 100 µM
TGI (OVCAR-4 ovarian): > 100 µM
TGI (RXF-631 renal): > 100 µM
TGI (MOLT-4 leukemia): > 100 µM
TGI (IGROV1 ovarian): > 100 µM
TGI (NCI-H23 lung): > 100 µM
TGI (UO-31 renal): > 100 µM
TGI (NCI-H522 lung): > 100 µM
TGI (M14 melanoma): > 100 µM
TGI (HOP-92 NSCLC): > 100 µM
TGI (A549 NSCLC): > 100 µM

CN(C)CC1CCCC(CN(C)C)C1OC(=O)c1ccccc1 (centres undefined)
TGI (DMS 273 small cell lung): > 100 µM
TGI (SW-620 colon): > 100 µM
TGI (OVCAR-5 ovarian): > 100 µM
TGI (COLO 205 colon): > 100 µM
TGI (RPMI-8226 leukemia): > 100 µM
TGI (ACHN renal): > 100 µM
TGI (U251 CNS): > 100 µM
TGI (LXFL 529 NSCLC): > 100 µM
TGI (SF-268 CNS): > 100 µM
TGI (LOX IMVI melanoma): > 100 µM
TGI (A498 renal): > 100 µM
TGI (SK-OV-3 ovarian): > 100 µM
TGI (SR leukemia): > 100 µM
TGI (NCI-H226 lung): > 100 µM
TGI (UACC-62 melanoma): > 100 µM
TGI (MALME-3M melanoma): > 100 µM
TGI (SN12C renal): > 100 µM
TGI (KM12 colon): > 100 µM
TGI (UACC-257 melanoma): > 100 µM
TGI (RXF 393 renal): > 100 µM
TGI (HOP-62 NSCLC): > 100 µM
TGI (NCI-H460 lung): > 100 µM
TGI (786-0 renal): > 100 µM
TGI (SK-MEL-5 melanoma): > 100 µM
TGI (SF-295 CNS): > 100 µM
TGI (SNB-75 CNS): > 100 µM
TGI (SK-MEL-2 melanoma): > 100 µM
TGI (SF-539 CNS): > 100 µM
TGI (HCT-15 colon): > 100 µM
TGI (M19-MEL melanoma): > 100 µM
TGI (HT29 colon): > 100 µM
TGI (EKVX NSCLC): > 100 µM
TGI (TK-10 renal): > 100 µM
TGI (CCRF-CEM leukemia): > 100 µM
TGI (HCT-116 colon): > 100 µM
TGI (K-562 leukemia): > 100 µM
TGI (CAKI-1 renal): > 100 µM
TGI (KM20L2 colon): > 100 µM
TGI (OVCAR-3 ovarian): > 100 µM
TGI (OVCAR-8 ovarian): > 100 µM
TGI (SNB-78 CNS): > 100 µM
TGI (HL-60(TB) leukemia): > 100 µM
TGI (OVCAR-4 ovarian): > 100 µM
TGI (MOLT-4 leukemia): > 100 µM
TGI (IGROV1 ovarian): > 100 µM
TGI (HOP-18 NSCLC): > 100 µM
TGI (SK-MEL-28 melanoma): > 100 µM
TGI (HCC-2998 colon): > 100 µM
TGI (DLD-1 colon): > 100 µM
TGI (NCI-H23 lung): > 100 µM
TGI (UO-31 renal): > 100 µM
TGI (NCI-H522 lung): > 100 µM
TGI (M14 melanoma): > 100 µM
TGI (HOP-92 NSCLC): > 100 µM
TGI (A549 NSCLC): > 100 µM

COC(=O)CC1N=C(NC#N)N(CCc2c[nH]c3ccccc23)C1=O (centres undefined)
TGI (DMS 273 small cell lung): > 100 µM
TGI (DMS 114 small cell lung): > 100 µM
TGI (SW-620 colon): > 100 µM
TGI (OVCAR-5 ovarian): > 100 µM
TGI (COLO 205 colon): > 100 µM
TGI (RPMI-8226 leukemia): > 100 µM
TGI (ACHN renal): > 100 µM
TGI (U251 CNS): > 100 µM
TGI (LXFL 529 NSCLC): > 100 µM
TGI (SF-268 CNS): > 100 µM
TGI (LOX IMVI melanoma): > 100 µM
TGI (SK-OV-3 ovarian): > 100 µM
TGI (SR leukemia): > 100 µM
TGI (NCI-H226 lung): > 100 µM
TGI (UACC-62 melanoma): > 100 µM
TGI (SN12C renal): > 100 µM
TGI (KM12 colon): > 100 µM
TGI (UACC-257 melanoma): > 100 µM
TGI (RXF 393 renal): > 100 µM
TGI (HOP-62 NSCLC): > 100 µM
TGI (NCI-H460 lung): > 100 µM
TGI (786-0 renal): > 100 µM
TGI (SK-MEL-5 melanoma): > 100 µM
TGI (SF-295 CNS): > 100 µM
TGI (SNB-75 CNS): > 100 µM
TGI (SF-539 CNS): > 100 µM
TGI (HCT-15 colon): > 100 µM
TGI (M19-MEL melanoma): > 100 µM
TGI (HT29 colon): > 100 µM
TGI (EKVX NSCLC): > 100 µM
TGI (SNB-19 CNS): > 100 µM
TGI (TK-10 renal): > 100 µM
TGI (CCRF-CEM leukemia): > 100 µM
TGI (HCT-116 colon): > 100 µM
TGI (K-562 leukemia): > 100 µM
TGI (KM20L2 colon): > 100 µM
TGI (OVCAR-3 ovarian): > 100 µM
TGI (OVCAR-8 ovarian): > 100 µM
TGI (SNB-78 CNS): > 100 µM
TGI (XF 498 CNS): > 100 µM
TGI (HL-60(TB) leukemia): > 100 µM
TGI (OVCAR-4 ovarian): > 100 µM
TGI (MOLT-4 leukemia): > 100 µM
TGI (IGROV1 ovarian): > 100 µM
TGI (SK-MEL-28 melanoma): > 100 µM
TGI (HCC-2998 colon): > 100 µM
TGI (DLD-1 colon): > 100 µM
TGI (NCI-H23 lung): > 100 µM
TGI (UO-31 renal): > 100 µM
TGI (M14 melanoma): > 100 µM
TGI (A549 NSCLC): > 100 µM

CC(=O)O[C@H]1C(=O)[C@@]2(C)C(C(OC(=O)c3ccccc3)[C@]3(O)CC(OC(=O)C(O)C(NC(=O)c4ccc(C(F)(F)F)cc4)c4ccccc4)C(C)=C1C3(C)C)[C@]1(OC(C)=O)CO[C@@H]1C[C@@H]2O (some centres undefined)
TGI (DMS 273 small cell lung): 0.53 µM
TGI (DMS 114 small cell lung): 0.122 µM
TGI (SW-620 colon): 0.763 µM
TGI (OVCAR-5 ovarian): 3.95 µM
TGI (COLO 205 colon): 0.153 µM
TGI (RPMI-8226 leukemia): 5.88 µM
TGI (ACHN renal): > 37.5 µM
TGI (U251 CNS): 2.43 µM
TGI (SF-268 CNS): 5.3 µM
TGI (LOX IMVI melanoma): 6.43 µM
TGI (A498 renal): > 37.5 µM
TGI (SK-OV-3 ovarian): 0.946 µM
TGI (SR leukemia): 4.96 µM
TGI (NCI-H226 lung): 4.96 µM
TGI (UACC-62 melanoma): 0.269 µM
TGI (MALME-3M melanoma): 13.7 µM
TGI (SN12C renal): 11.6 µM
TGI (KM12 colon): 0.202 µM
TGI (UACC-257 melanoma): > 37.5 µM
TGI (HOP-62 NSCLC): 0.506 µM
TGI (NCI-H460 lung): 0.783 µM
TGI (786-0 renal): 5.58 µM
TGI (SK-MEL-5 melanoma): 3.8 µM
TGI (SF-295 CNS): 1.79 µM
TGI (SNB-75 CNS): 0.00891 µM
TGI (SK-MEL-2 melanoma): 0.284 µM
TGI (SF-539 CNS): 0.65 µM
TGI (HCT-15 colon): 13.5 µM
TGI (M19-MEL melanoma): 0.271 µM
TGI (HT29 colon): 0.237 µM
TGI (SNB-19 CNS): > 37.5 µM
TGI (TK-10 renal): > 37.5 µM
TGI (CCRF-CEM leukemia): 15.5 µM
TGI (HCT-116 colon): 0.196 µM
TGI (K-562 leukemia): 14.8 µM
TGI (CAKI-1 renal): > 37.5 µM
TGI (KM20L2 colon): 0.174 µM
TGI (OVCAR-3 ovarian): 0.194 µM
TGI (OVCAR-8 ovarian): 2.44 µM
TGI (SNB-78 CNS): 10.1 µM
TGI (XF 498 CNS): 3.09 µM
TGI (HL-60(TB) leukemia): > 37.5 µM
TGI (OVCAR-4 ovarian): > 37.5 µM
TGI (MOLT-4 leukemia): 7.39 µM
TGI (IGROV1 ovarian): > 37.5 µM
TGI (HOP-18 NSCLC): 31 µM
TGI (SK-MEL-28 melanoma): 17.8 µM
TGI (HCC-2998 colon): 0.387 µM
TGI (DLD-1 colon): 28.9 µM
TGI (NCI-H23 lung): 1.06 µM
TGI (NCI-H522 lung): 0.2 µM
TGI (M14 melanoma): 0.485 µM
TGI (HOP-92 NSCLC): > 37.5 µM
TGI (A549 NSCLC): > 37.5 µM
